Experiments:
Assay in all cases: radiometric filter-binding kinase assay
IGF1R (human) = IGF1R (human) (UniProt P08069); details: compound 10.0 µM
MST4 (human) = MST4 (human) (UniProt Q9P289); details: compound 10.0 µM
[1] = system: PAK2 (human), Q13177 [T402E]; details: compound 10.0 µM
DYRK1A (human) = DYRK1A (human) (UniProt Q13627)
IKBKE (human) = IKBKE (human) (UniProt Q14164); details: compound 10.0 µM
MAPK12 (human) = MAPK12 (human) (UniProt P53778)
[2] = system: SGK1 (human), O00141 [S422D]
HIPK3 (human) = HIPK3 (human) (UniProt Q9H422)
MAP3K7 TAB1 (human) = MAP3K7 TAB1 (human) (UniProt Q15750+O43318); details: compound 10.0 µM
MAPK15 (human) = MAPK15 (human) (UniProt Q8TD08)
PAK6 (human) = PAK6 (human) (UniProt Q9NQU5)
SRPK1 (human) = SRPK1 (human) (UniProt Q96SB4)
MAPKAPK2 (human) = MAPKAPK2 (human) (UniProt P49137)
IRAK4 (human) = IRAK4 (human) (UniProt Q9NWZ3); details: compound 10.0 µM
PIM2 (human) = PIM2 (human) (UniProt Q9P1W9)
RPS6KA3 KD1 KD2 (human) = RPS6KA3 KD1 KD2 (human) (UniProt P51812)
MARK1 (human) = MARK1 (human) (UniProt Q9P0L2); details: compound 10.0 µM
CAMKK2 (human) = CAMKK2 (human) (UniProt Q96RR4)
CLK2 (human) = CLK2 (human) (UniProt P49760); details: compound 10.0 µM
EPHA4 (human) = EPHA4 (human) (UniProt P54764); details: compound 10.0 µM
PIM3 (human) = PIM3 (human) (UniProt Q86V86)
CHEK1 (human) = CHEK1 (human) (UniProt O14757)
PKN2 (human) = PKN2 (human) (UniProt Q16513)
RIPK2 (human) = RIPK2 (human) (UniProt O43353); details: compound 10.0 µM
PAK4 (human) = PAK4 (human) (UniProt O96013)
MAPK3 (human) = MAPK3 (human) (UniProt P27361)
MARK2 (human) = MARK2 (human) (UniProt Q7KZI7); details: compound 10.0 µM
PLK1 (human) = PLK1 (human) (UniProt P53350)
CSNK1D (human) = CSNK1D (human) (UniProt P48730)
NEK6 (human) = NEK6 (human) (UniProt Q9HC98)
MAPK14 (human) = MAPK14 (human) (UniProt Q16539)
PAK7 (human) = PAK7 (human) (UniProt Q9P286)
[3] = system: AKT2 (human), P31751 [S474D]
NEK2 (human) = NEK2 (human) (UniProt P51955)
RPS6KA5 KD1 KD2 (human) = RPS6KA5 KD1 KD2 (human) (UniProt O75582)

Chain of PIM2 (human) (Q9P1W9 whole entry, looked up): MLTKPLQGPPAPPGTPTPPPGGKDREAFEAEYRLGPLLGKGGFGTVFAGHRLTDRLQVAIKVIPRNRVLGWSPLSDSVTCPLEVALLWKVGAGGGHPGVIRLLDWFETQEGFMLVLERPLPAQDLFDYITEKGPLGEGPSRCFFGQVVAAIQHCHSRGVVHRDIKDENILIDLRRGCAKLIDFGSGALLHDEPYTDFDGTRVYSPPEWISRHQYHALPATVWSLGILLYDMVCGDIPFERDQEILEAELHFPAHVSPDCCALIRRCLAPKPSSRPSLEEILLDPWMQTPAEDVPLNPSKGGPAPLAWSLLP
Chain of NEK2 (human) (P51955 whole entry, looked up): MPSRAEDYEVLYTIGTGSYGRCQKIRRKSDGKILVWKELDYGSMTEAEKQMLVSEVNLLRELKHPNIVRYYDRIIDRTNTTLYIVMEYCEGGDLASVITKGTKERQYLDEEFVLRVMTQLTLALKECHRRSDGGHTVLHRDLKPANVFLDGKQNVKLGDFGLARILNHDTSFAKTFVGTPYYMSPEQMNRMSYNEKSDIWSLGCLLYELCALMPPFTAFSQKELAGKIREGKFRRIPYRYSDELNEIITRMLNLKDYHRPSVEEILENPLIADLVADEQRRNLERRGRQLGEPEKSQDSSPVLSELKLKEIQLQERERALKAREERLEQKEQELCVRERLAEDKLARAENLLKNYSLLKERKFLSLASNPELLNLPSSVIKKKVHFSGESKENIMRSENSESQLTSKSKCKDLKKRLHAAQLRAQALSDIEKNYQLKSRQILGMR
Chain of MAPK14 (human) (Q16539 whole entry, looked up): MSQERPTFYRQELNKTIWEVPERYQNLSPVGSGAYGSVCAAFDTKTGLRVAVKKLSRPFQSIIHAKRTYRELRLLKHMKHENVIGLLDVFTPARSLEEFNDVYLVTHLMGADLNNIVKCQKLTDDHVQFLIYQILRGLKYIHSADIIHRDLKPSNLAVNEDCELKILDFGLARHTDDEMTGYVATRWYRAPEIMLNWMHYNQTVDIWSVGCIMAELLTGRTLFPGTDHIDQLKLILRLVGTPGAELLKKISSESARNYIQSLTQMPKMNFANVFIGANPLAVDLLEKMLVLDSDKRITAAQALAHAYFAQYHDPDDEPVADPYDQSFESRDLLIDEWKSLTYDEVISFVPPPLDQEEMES
Chain of MAPK15 (human) (Q8TD08 whole entry, looked up): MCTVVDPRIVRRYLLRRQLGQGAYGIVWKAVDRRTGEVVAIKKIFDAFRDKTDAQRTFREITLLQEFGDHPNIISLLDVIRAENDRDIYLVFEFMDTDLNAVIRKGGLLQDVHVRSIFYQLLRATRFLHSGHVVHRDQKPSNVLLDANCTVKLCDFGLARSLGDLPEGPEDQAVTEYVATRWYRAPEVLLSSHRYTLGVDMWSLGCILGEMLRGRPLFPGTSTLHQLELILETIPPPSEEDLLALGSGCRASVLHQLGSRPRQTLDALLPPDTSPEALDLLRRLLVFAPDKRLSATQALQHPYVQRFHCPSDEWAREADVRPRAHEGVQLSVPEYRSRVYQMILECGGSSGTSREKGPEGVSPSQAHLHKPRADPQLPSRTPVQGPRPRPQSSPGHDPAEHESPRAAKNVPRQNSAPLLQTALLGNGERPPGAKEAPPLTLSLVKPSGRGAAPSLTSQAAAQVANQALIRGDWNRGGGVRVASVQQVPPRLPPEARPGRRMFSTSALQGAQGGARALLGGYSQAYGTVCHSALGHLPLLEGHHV
Chain of MAPK12 (human) (P53778 whole entry, looked up): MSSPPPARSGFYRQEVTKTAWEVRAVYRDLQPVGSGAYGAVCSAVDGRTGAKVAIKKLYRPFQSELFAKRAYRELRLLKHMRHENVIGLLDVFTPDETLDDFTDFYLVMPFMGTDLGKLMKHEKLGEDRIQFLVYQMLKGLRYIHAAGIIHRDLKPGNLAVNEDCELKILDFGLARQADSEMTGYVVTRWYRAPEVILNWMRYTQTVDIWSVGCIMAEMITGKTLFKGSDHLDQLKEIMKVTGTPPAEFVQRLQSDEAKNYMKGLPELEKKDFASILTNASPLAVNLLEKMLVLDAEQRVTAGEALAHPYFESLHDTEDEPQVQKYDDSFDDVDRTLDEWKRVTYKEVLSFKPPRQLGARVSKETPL
Chain of PAK6 (human) (Q9NQU5 whole entry, looked up): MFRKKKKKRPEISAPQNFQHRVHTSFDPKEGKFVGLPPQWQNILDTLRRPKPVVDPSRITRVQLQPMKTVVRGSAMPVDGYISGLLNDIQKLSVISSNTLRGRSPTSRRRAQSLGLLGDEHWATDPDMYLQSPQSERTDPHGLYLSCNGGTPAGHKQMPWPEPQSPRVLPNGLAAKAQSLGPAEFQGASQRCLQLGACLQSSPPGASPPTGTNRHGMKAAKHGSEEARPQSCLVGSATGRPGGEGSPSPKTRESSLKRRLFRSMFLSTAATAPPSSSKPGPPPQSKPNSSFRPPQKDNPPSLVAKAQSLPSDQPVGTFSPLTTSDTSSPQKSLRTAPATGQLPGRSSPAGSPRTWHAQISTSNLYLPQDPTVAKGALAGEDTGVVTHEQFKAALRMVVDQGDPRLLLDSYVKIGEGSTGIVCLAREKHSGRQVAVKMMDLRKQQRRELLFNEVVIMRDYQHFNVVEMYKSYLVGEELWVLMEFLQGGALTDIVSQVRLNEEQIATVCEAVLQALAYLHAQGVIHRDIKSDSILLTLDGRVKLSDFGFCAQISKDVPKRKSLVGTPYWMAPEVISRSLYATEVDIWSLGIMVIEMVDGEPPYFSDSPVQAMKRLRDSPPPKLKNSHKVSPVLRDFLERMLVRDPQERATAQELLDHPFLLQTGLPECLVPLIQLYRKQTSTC
Chain of SRPK1 (human) (Q96SB4 whole entry, looked up): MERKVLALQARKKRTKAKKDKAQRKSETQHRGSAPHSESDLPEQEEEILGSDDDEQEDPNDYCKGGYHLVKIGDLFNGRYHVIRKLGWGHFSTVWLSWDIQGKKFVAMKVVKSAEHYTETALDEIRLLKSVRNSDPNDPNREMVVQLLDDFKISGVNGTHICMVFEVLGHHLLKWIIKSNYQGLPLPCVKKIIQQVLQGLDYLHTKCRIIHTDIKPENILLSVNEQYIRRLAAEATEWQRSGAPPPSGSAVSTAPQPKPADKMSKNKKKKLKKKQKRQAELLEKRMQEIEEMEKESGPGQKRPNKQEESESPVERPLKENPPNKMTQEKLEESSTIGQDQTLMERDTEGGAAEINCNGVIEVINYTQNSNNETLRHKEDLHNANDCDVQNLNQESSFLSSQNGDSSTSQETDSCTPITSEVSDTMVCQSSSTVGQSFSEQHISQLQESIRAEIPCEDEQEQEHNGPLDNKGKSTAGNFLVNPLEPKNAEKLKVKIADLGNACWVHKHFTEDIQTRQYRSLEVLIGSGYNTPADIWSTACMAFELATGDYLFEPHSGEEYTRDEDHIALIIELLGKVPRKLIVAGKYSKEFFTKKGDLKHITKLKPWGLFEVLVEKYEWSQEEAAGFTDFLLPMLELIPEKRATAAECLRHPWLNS
Chain of RPS6KA3 KD1 KD2 (human) (P51812 whole entry, looked up): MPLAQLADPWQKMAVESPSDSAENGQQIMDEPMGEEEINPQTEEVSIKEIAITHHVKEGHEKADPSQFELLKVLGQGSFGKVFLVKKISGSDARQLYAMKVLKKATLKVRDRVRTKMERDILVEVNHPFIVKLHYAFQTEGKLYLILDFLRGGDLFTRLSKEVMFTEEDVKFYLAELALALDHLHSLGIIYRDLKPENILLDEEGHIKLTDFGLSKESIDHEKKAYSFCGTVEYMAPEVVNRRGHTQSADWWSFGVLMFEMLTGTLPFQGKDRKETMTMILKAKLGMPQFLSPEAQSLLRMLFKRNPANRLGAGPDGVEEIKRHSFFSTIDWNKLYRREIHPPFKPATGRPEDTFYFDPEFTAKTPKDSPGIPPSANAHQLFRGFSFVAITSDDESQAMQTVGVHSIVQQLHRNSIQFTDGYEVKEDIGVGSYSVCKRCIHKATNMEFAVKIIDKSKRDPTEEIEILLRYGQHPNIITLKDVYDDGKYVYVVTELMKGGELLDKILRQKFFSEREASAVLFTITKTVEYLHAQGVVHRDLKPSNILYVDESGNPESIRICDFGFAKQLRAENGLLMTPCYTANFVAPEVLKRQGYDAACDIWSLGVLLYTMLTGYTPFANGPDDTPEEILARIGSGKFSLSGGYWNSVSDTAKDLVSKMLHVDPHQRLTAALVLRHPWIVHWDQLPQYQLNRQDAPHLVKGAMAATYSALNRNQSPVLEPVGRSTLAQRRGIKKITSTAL
Chain of CHEK1 (human) (O14757 whole entry, looked up): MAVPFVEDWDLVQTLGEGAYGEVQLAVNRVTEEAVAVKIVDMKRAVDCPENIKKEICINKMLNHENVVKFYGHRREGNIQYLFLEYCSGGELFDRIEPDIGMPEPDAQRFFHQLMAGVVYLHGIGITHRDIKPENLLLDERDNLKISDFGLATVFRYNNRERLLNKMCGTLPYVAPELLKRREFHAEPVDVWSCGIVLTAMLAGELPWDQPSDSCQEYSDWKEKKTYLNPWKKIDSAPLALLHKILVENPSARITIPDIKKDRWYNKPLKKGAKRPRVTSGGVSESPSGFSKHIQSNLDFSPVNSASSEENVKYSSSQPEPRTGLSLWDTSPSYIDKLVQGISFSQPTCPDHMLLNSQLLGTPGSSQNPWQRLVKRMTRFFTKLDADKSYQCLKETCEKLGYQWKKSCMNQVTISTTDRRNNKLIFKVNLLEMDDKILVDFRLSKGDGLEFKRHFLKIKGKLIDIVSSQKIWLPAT

Compound: Oc1ccc(/C=C/c2cc(O)cc(O)c2)cc1
- residual activity (IGF1R (human)): 59%
- residual activity (MST4 (human)): 68%
- residual activity [1]: 83%
- residual activity (DYRK1A (human); compound 1.0 µM): 94%
- residual activity (DYRK1A (human); compound 10.0 µM): 61%
- residual activity (DYRK1A (human); compound 50.0 µM): 17%
- residual activity (IKBKE (human)): 59%
- residual activity (MAPK12 (human); compound 1.0 µM): 106%
- residual activity (MAPK12 (human); compound 10.0 µM): 78%
- residual activity (MAPK12 (human); compound 50.0 µM): 65%
- residual activity ([2]; compound 1.0 µM): 79%
- residual activity ([2]; compound 10.0 µM): 94%
- residual activity ([2]; compound 50.0 µM): 23%
- residual activity (HIPK3 (human); compound 1.0 µM): 93%
- residual activity (HIPK3 (human); compound 10.0 µM): 41%
- residual activity (HIPK3 (human); compound 50.0 µM): 12%
- residual activity (MAP3K7 TAB1 (human)): 83%
- residual activity (MAPK15 (human); compound 1.0 µM): 36%
- residual activity (MAPK15 (human); compound 10.0 µM): 10%
- residual activity (MAPK15 (human); compound 50.0 µM): 12%
- residual activity (PAK6 (human); compound 1.0 µM): 108%
- residual activity (PAK6 (human); compound 10.0 µM): 106%
- residual activity (PAK6 (human); compound 50.0 µM): 100%
- residual activity (SRPK1 (human); compound 1.0 µM): 111%
- residual activity (SRPK1 (human); compound 10.0 µM): 87%
- residual activity (SRPK1 (human); compound 50.0 µM): 93%
- residual activity (MAPKAPK2 (human); compound 1.0 µM): 118%
- residual activity (MAPKAPK2 (human); compound 10.0 µM): 88%
- residual activity (MAPKAPK2 (human); compound 50.0 µM): 71%
- residual activity (IRAK4 (human)): 73%
- residual activity (PIM2 (human); compound 1.0 µM): 78%
- residual activity (PIM2 (human); compound 10.0 µM): 37%
- residual activity (PIM2 (human); compound 50.0 µM): 27%
- residual activity (RPS6KA3 KD1 KD2 (human); compound 1.0 µM): 77%
- residual activity (RPS6KA3 KD1 KD2 (human); compound 10.0 µM): 72%
- residual activity (RPS6KA3 KD1 KD2 (human); compound 50.0 µM): 18%
- residual activity (MARK1 (human)): 96%
- residual activity (CAMKK2 (human); compound 1.0 µM): 107%
- residual activity (CAMKK2 (human); compound 10.0 µM): 74%
- residual activity (CAMKK2 (human); compound 50.0 µM): 28%
- residual activity (CLK2 (human)): 55%
- residual activity (EPHA4 (human)): 107%
- residual activity (PIM3 (human); compound 1.0 µM): 48%
- residual activity (PIM3 (human); compound 10.0 µM): 44%
- residual activity (PIM3 (human); compound 50.0 µM): 2%
- residual activity (CHEK1 (human); compound 1.0 µM): 95%
- residual activity (CHEK1 (human); compound 10.0 µM): 79%
- residual activity (CHEK1 (human); compound 50.0 µM): 29%
- residual activity (PKN2 (human); compound 1.0 µM): 95%
- residual activity (PKN2 (human); compound 10.0 µM): 70%
- residual activity (PKN2 (human); compound 50.0 µM): 21%
- residual activity (RIPK2 (human)): 51%
- residual activity (PAK4 (human); compound 1.0 µM): 85%
- residual activity (PAK4 (human); compound 10.0 µM): 80%
- residual activity (PAK4 (human); compound 50.0 µM): 67%
- residual activity (MAPK3 (human); compound 1.0 µM): 101%
- residual activity (MAPK3 (human); compound 10.0 µM): 88%
- residual activity (MAPK3 (human); compound 50.0 µM): 92%
- residual activity (MARK2 (human)): 86%
- residual activity (PLK1 (human); compound 1.0 µM): 90%
- residual activity (PLK1 (human); compound 10.0 µM): 87%
- residual activity (PLK1 (human); compound 50.0 µM): 78%
- residual activity (CSNK1D (human); compound 1.0 µM): 84%
- residual activity (CSNK1D (human); compound 10.0 µM): 94%
- residual activity (CSNK1D (human); compound 50.0 µM): 46%
- residual activity (NEK6 (human); compound 1.0 µM): 104%
- residual activity (NEK6 (human); compound 10.0 µM): 96%
- residual activity (NEK6 (human); compound 50.0 µM): 87%
- residual activity (MAPK14 (human); compound 1.0 µM): 95%
- residual activity (MAPK14 (human); compound 10.0 µM): 97%
- residual activity (MAPK14 (human); compound 50.0 µM): 75%
- residual activity (PAK7 (human); compound 1.0 µM): 102%
- residual activity (PAK7 (human); compound 10.0 µM): 83%
- residual activity (PAK7 (human); compound 50.0 µM): 75%
- residual activity ([3]; compound 1.0 µM): 108%
- residual activity ([3]; compound 10.0 µM): 67%
- residual activity ([3]; compound 50.0 µM): 76%
- residual activity (NEK2 (human); compound 1.0 µM): 96%
- residual activity (NEK2 (human); compound 10.0 µM): 91%
- residual activity (NEK2 (human); compound 50.0 µM): 83%
- residual activity (RPS6KA5 KD1 KD2 (human); compound 1.0 µM): 80%
- residual activity (RPS6KA5 KD1 KD2 (human); compound 10.0 µM): 65%
- residual activity (RPS6KA5 KD1 KD2 (human); compound 50.0 µM): 16%
